This assay deals with T1, CDK2 (Homo sapiens, UniProt P24941).
T1 construct: endogenous in cells; host or cells: MKN1 cells
The assay can be described thus: CDK2 degradation in MKN1 cells (AlphaLISA). On the set-up: key to CDK2 degradation 14 h: Mean external-Abs DC50 (nM): A (<100 nM); B (≥100-500 nM); C (>500-1000 nM); D (>1000 nM); E (not achieved). Conditions: 14 h incubation; for DC50: read-out: CDK2 degradation 14 h: Mean external-Abs DC50. The class given is cell-based. As to the method:
Degradation of CDK2 in MKN1 cells was measured using AlphaLISA technology (PerkinElmer ALSU-TCDK2-A10K). MKN1 cells were maintained in RPMI1640 medium containing 10% FBS+1× penn/strep. Cells were seeded in 96-well plates (Corning 3599) at a density of 2e4 cells per well in 80 μL of fresh complete growth medium. Cells were incubated overnight at 37° C., 5% CO2. Compounds were then added to the cell assay plates with a final top concentration of 10 μM in a 1:5 dilution series with a total of 11 doses (0.001 nM-10 μM). The final volume per well was 160 μL and the final DMSO concentration was 0.1%. Additionally, wells containing no cells and only complete growth medium were also maintained on the cell assay plates (‘no cell’ wells) and processed along with experimental wells. After 14 hour-incubation at 37° C., 5% CO2, the medium was removed and the cells were washed once with 100 μL of 1×PBS. Following removal of PBS, 40 μL of 1× Lysis Buffer containing 1× protease and phosphatase inhibitors (Roche 4693116001; Roche 4906837001) were added to each well. The cell assay plate was agitated on a plate shaker at 350 rpm for 10 minutes at room temperature. 10 μL of each cell lysate were transferred to a 384-well plate (PerkinElmer 6007290). 10 μL of control lysates (from PerkinElmer ALSU-TCDK2-A10K kit) were added to separate wells to generate a standard curve. Activation Buffer was prepared by diluting 25-fold in combined Reaction Buffer 1 and Reaction Buffer 2. Acceptor Beads were diluted 50-fold in combined Reaction Buffers. 5 μL of Acceptor Mix were added to each well. The plate was sealed with Topseal-Aadhesive film, covered with foil, and incubated in the dark for 1 hour at room temperature. Under subdued light, the Donor Beads were diluted 50-fold in Dilution Buffer. 5 μL of Donor Mix were added to each well under subdued light. The plate was sealed with Topseal-A adhesive film, covered with foil, and incubated in the dark for 1 hour at room temperature. Under subdued light, the plates were analyzed on an EnVision Microplate Reader (PerkinElmer Model 2009-0030). The average signal from ‘no cell’ wells was subtracted from the signal in experimental wells prior to calculating Alpha signal for test compounds and negative control (0.100 DMSO). The data were analyzed using Xlfit (v5.3. 1.3) and the dose-dependent CDK2 degradation data were fit using a four-parameter logistic model to calculate DC50.

Regarding `Cc1cc(S(=O)(=O)NC2CCC(CN3CCN(c4cccc(NC5CCC(=O)NC5=O)c4)CC3)CC2)ccc1Nc1ncc(C(F)(F)F)c(N2CCCC(C)(O)C2)n1` (centres unmarked) [I-1118], the “CDK2 degradation 14 h: Average Dmax %” value was “A (A (>75% o))” and the half-maximal degradation concentration (DC50) is less than 100 nM.
In the case of `Cc1cc(S(=O)(=O)N2CCC(N(C)CC3(F)CCN(c4cccc5c4n(C)c(=O)n5C4CCC(=O)NC4=O)CC3)CC2)ccc1Nc1ncc2cc(Cl)c(=O)n(C3CCCC34CC4)c2n1` (centres unmarked) [I-357], the “CDK2 degradation 14 h: Average Dmax %” value is “B (B (>50% -75%))” and the “CDK2 degradation 14 h: Mean external-Abs DC50 (nM)” value is given as “E”.
As for `CC1CC(NS(=O)(=O)c2ccc(Nc3ncc(C(F)(F)F)c(N4CCCC(C)(O)C4)n3)c(F)c2)CCN1CC1CCN(c2ccc(C3CCC(=O)NC3=O)c(F)c2)CC1` (centres unmarked) [I-1037], the “CDK2 degradation 14 h: Average Dmax %” value is “A (A (>75% o))” and the DC50 is less than 100 nM.
Turning to `CC1(O)CCCN(c2nc(Nc3ccc(S(=O)(=O)NC4CCC(CN5CCN(c6ccc(C7CCC(=O)NC7=O)cc6F)CC5)CC4)cc3Cl)ncc2C(F)(F)F)C1` (centres unmarked) [I-1112], the “CDK2 degradation 14 h: Average Dmax %” value is given as “A (A (>75% o))” and the DC50 was less than 100 nM.
Take `Cc1cc(S(=O)(=O)C(C)CCO[C@H]2CC[C@H](CN3CCC(c4ccc5c(c4)n(C4CCC(=O)NC4=O)c(=O)n5C)CC3)CC2)ccc1Nc1ncc2cc(Cl)c(=O)n(C3CCCC3)c2n1` (some centres unmarked) [I-12]: the “CDK2 degradation 14 h: Average Dmax %” value is on record as “A (A (>75% o))” and the DC50 is less than 100 nM.
As to `Cc1cc(S(=O)(=O)C2CC3(CCN(CC4CCN(c5cccc6c5n(C)c(=O)n6C5CCC(=O)NC5=O)CC4)CC3)C2)ccc1Nc1ncc(C(F)(F)F)c(N2CCCC(C)(O)C2)n1` (centres unmarked) [I-819], the “CDK2 degradation 14 h: Average Dmax %” value is reported as “B (B (>50% -75%))” and the 50% degradation concentration (DC50) fell in the range of 500 to 1000 nM.
On to `Cc1cc(S(=O)(=O)C2CC3(CCN(CC4CCN(c5ccc6c(c5F)n(C)c(=O)n6C5CCC(=O)NC5=O)CC4)CC3)C2)ccc1Nc1ncc(C(F)(F)F)c(N2CCCC(C)(O)C2)n1` (centres unmarked) [I-518], for which the “CDK2 degradation 14 h: Average Dmax %” value is “A (A (>75% o))” and the 50% degradation concentration (DC50) was less than 100 nM.
Take `Cc1cc(S(=O)(=O)C2CC3(CCN(CC4CCN(c5cc(F)cc(NC6CCC(=O)NC6=O)c5)CC4)CC3)C2)ccc1Nc1ncc2cc(Cl)c(=O)n(C3CCCC3)c2n1` (centres unmarked) [I-69]: the “CDK2 degradation 14 h: Average Dmax %” value is listed as “A (A (>75% o))” and the DC50 was 100 to 500 nM.
The matching figures for `Cc1cc(S(=O)(=O)C2CC3(CCN(CCC4CCN(c5cccc6c5n(C)c(=O)n6C5CCC(=O)NC5=O)CC4)CC3)C2)ccc1Nc1ncc2cc(Cl)c(=O)n(C3CCCC3)c2n1` (centres unmarked) [I-40]: “A (A (>75% o))” and less than 100 nM.
The matching figures for `Cc1cc(S(=O)(=O)N2CC(CN(C)C3CCN(c4cccc5c4n(C)c(=O)n5C4CCC(=O)NC4=O)CC3)C2)ccc1Nc1ncc2cc(Cl)c(=O)n(C3CCCC3)c2n1` (centres unmarked) [I-421]: “B (B (>50% -75%))” and 100 to 500 nM.
Consider `Cc1cc(S(=O)(=O)NC2CCC(CN3CCN(c4ccc(C5CCC(=O)NC5=O)c(F)c4)CC3)CC2)c(F)cc1Nc1ncc(C(F)(F)F)c(N2CCCC(C)(O)C2)n1` (centres unmarked) [I-1096], for which the “CDK2 degradation 14 h: Average Dmax %” value is “A (A (>75% o))” and the half-maximal degradation concentration (DC50) was less than 100 nM.
In the case of `Cc1cc(S(=O)(=O)N2CCC(CN(C)C3CCN(c4cccc5c4n(C)c(=O)n5C4CCC(=O)NC4=O)CC3)CC2)ccc1Nc1ncc2cc(F)c(=O)n(C3CCCC3)c2n1` (centres unmarked) [I-342], the “CDK2 degradation 14 h: Average Dmax %” value is “A (A (>75% o))” and the DC50 was less than 100 nM.
With `Cc1cc(S(=O)(=O)N[C@H](C)CO[C@H]2CC[C@H](CN3CCN(c4ccc5c(c4F)n(C)c(=O)n5C4CCC(=O)NC4=O)CC3)CC2)ccc1Nc1ncc2ccc(=O)n(C3CCCC3)c2n1` (some centres unmarked) [I-827], the “CDK2 degradation 14 h: Average Dmax %” value is reported as “A (A (>75% o))” and the DC50 is less than 100 nM.
Consider `Cc1cc(S(=O)(=O)NCCCCCC2CCN(c3ccc(N4CCC(=O)NC4=O)cc3)CC2)ccc1Nc1ncc2cc(Cl)c(=O)n(C3CCCC3)c2n1` [I-410], for which the “CDK2 degradation 14 h: Average Dmax %” value was “C (C (>25% -50%))” and the DC50 is more than 1000 nM.
Turning to `Cc1cc(S(=O)(=O)NC2CCN(CC3CCN(c4ccc(C5CCC(=O)NC5=O)cc4F)CC3)CC2F)ccc1Nc1ncc(C(F)(F)F)c(N2CCCC(C)(O)C2)n1` (centres unmarked) [I-1054], the “CDK2 degradation 14 h: Average Dmax %” value was “A (A (>75% o))” and the 50% degradation concentration (DC50) was less than 100 nM.
The matching figures for `Cc1cc(S(=O)(=O)N2CCC(CN(CC(F)(F)F)C3CCN(c4cccc5c4n(C)c(=O)n5C4CCC(=O)NC4=O)CC3)CC2)ccc1Nc1ncc2cc(Cl)c(=O)n(C3CCCC34CC4)c2n1` (centres unmarked) [I-354]: “D (D (<25%))” and more than 1000 nM.
With `Cc1cc(S(=O)(=O)N[C@H]2C[C@H](N3CCN(CC4CCN(c5ccc6c(c5)n(C)c(=O)n6C5CCC(=O)NC5=O)CC4)CC3)C2)ccc1Nc1ncc2cc(Cl)c(=O)n(C(C)C)c2n1` (some centres unmarked) [I-203], the “CDK2 degradation 14 h: Average Dmax %” value is “A (A (>75% o))” and the DC50 was less than 100 nM.
The matching figures for `Cc1cc(S(=O)(=O)N[C@@H]2CCN(CC3CCN(c4ccc(C5CCC(=O)NC5=O)cc4F)CC3)C[C@H]2F)ccc1Nc1ncc(C(F)(F)F)c(N2CCC[C@](C)(O)C2)n1` (some centres unmarked) [I-804]: “A (A (>75% o))” and less than 100 nM.
For `Cc1cc(S(=O)(=O)N[C@H]2C[C@H](N3CCN(CC4CCN(c5cccc6c5n(C)c(=O)n6C5CCC(=O)NC5=O)CC4)CC3)C2)ccc1Nc1ncc(C(F)(F)F)c(N2CCC[C@H](C(F)F)C2)n1` (some centres unmarked) [I-796], the “CDK2 degradation 14 h: Average Dmax %” value is listed as “A (A (>75% o))” and the DC50 is less than 100 nM.
For the compound `[2H]C(C)(COC1CCC(CN2CCN(c3ccc4c(c3F)n(C)c(=O)n4C3CCC(=O)NC3=O)CC2)CC1)NS(=O)(=O)c1ccc(Nc2ncc(C(F)(F)F)c(C3CCC(C)(O)CC3)n2)c(C)c1` (racemic) [I-859], the “CDK2 degradation 14 h: Average Dmax %” value is on record as “A (A (>75% o))”.
In the case of `Cc1cc(S(=O)(=O)N2CCC(OCCCc3ccc4c(c3)n(C)c(=O)n4C3CCC(=O)NC3=O)CC2)ccc1Nc1ncc2ccc(=O)n(C3CCCC3)c2n1` (centres unmarked) [I-453], the “CDK2 degradation 14 h: Average Dmax %” value was “D (D (<25%))” and the 50% degradation concentration (DC50) was more than 1000 nM.
The matching figures for `Cc1cc(S(=O)(=O)NC2CC(N3CCN(CC4CCN(c5ccc(NC6CCC(=O)NC6=O)c(Cl)c5)CC4)CC3)C2)ccc1Nc1ncc(C(F)(F)F)c(N2CCCC(C)(O)C2)n1` (centres unmarked) [I-717]: “A (A (>75% o))” and less than 100 nM.
`CC1(O)CCCN(c2nc(Nc3ccc(S(=O)(=O)NC4CCN(CC5(C)CCN(c6ccc(C7CCC(=O)NC7=O)c(F)c6)CC5)CC4F)cc3F)ncc2C(F)(F)F)C1` (centres unmarked) [I-1069]: the “CDK2 degradation 14 h: Average Dmax %” value is recorded as “A (A (>75% o))” and the 50% degradation concentration (DC50) is less than 100 nM.
`Cc1cc(S(=O)(=O)NCCOC2CCC(CN3CCC(c4ccc5c(c4)n(C)c(=O)n5C4CCC(=O)NC4=O)CC3)CC2)ccc1Nc1ncc(C(F)(F)F)c(C2CCC(C)(O)CC2)n1` (centres unmarked) [I-519]: the “CDK2 degradation 14 h: Average Dmax %” value is reported as “B (B (>50% -75%))” and the DC50 is less than 100 nM.
For `CC1(O)CCCN(c2nc(Nc3ccc(S(=O)(=O)NC4CCC(CN5CCN(c6ccc(C7CCC(=O)NC7=O)cc6)CC5)CC4)cc3Cl)ncc2C(F)(F)F)C1` (centres unmarked) [I-1100], the “CDK2 degradation 14 h: Average Dmax %” value was “A (A (>75% o))” and the 50% degradation concentration (DC50) was less than 100 nM.
In the case of `Cc1cc(S(=O)(=O)NC2CCC(N3CCN(c4ccc(C5CCC(=O)NC5=O)c(Cl)c4)CC3)CC2)ccc1Nc1ncc(C(F)(F)F)c(N2CCCC(C)(O)C2)n1` (centres unmarked) [I-930], the “CDK2 degradation 14 h: Average Dmax %” value is “A (A (>75% o))” and the DC50 was less than 100 nM.
The matching figures for `Cc1cc(S(=O)(=O)NCCOCCOCCOCCOCCCc2ccc3c(c2)n(C)c(=O)n3C2CCC(=O)NC2=O)ccc1Nc1ncc2cc(C(F)F)c(=O)n(C3CCCC3(C)O)c2n1` (centres unmarked) [I-486]: “A (A (>75% o))” and less than 100 nM.
Consider `Cc1cc(S(=O)(=O)[C@H]2CC[C@H](CN(C)C3CCN(c4cccc5c4n(C)c(=O)n5C4CCC(=O)NC4=O)CC3)CC2)ccc1Nc1ncc2ccc(=O)n(C3CCCC3)c2n1` (some centres unmarked) [I-63], for which the “CDK2 degradation 14 h: Average Dmax %” value was “A (A (>75% o))” and the DC50 is less than 100 nM.
On to `Cc1cc(S(=O)(=O)NCCOCCOCCOCCOCCCc2ccc3c(c2)n(C)c(=O)n3C2CCC(=O)NC2=O)ccc1Nc1ncc2c(C)c(Br)c(=O)n(C3CCCC3)c2n1` (centres unmarked) [I-460], for which the “CDK2 degradation 14 h: Average Dmax %” value is “B (B (>50% -75%))” and the DC50 was less than 100 nM.
As for `Cc1cc(S(=O)(=O)NCCOCCOCCCc2ccc3c(c2)n(C)c(=O)n3C2CCC(=O)NC2=O)ccc1Nc1ncc2ccc(=O)n(C3CCCC3)c2n1` (centres unmarked) [I-475], the “CDK2 degradation 14 h: Average Dmax %” value is “A (A (>75% o))” and the DC50 is less than 100 nM.

In general, DC50 refers to the midpoint of the concentration-degradation curve.

For the origin of these results see patent US20240173419A1, “CDK2 DEGRADERS AND USES THEREOF” (Kymera Therapeutics, Inc., priority 2022, published 2024).
